According to patent publication US8188085B2, “Antifungal agents” (Merck Sharp & Dohme Corp., priority 2008, dated 2012):

Target: glucan synthase (GS) prepared from Candida albicans MY1055 (Candida albicans, UniProt O13428)
Experiment: Glucan synthase inhibition (polymerization assay, 96-well)
Format: biochemical
Details: GS from C. albicans MY1055; 60 min incubation at 22° C.; read-out: Candida Albicans GS IC50 (converted)
Outline: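 Partially purified glucan synthase from C. albicans MY1055 membranes incorporated 0.5 mM ³H-UDPG with 25 μM GTP-γ-S, HEPES pH 7.5, over 60 min at 22 °C. TCA-precipitated glucan was counted by scintillation. IC50 (ng/mL) came from sigmoidal fits of duplicate 3-fold dilution series.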

Sequence of glucan synthase (GS) prepared from Candida albicans MY1055 (O13428 1-1897): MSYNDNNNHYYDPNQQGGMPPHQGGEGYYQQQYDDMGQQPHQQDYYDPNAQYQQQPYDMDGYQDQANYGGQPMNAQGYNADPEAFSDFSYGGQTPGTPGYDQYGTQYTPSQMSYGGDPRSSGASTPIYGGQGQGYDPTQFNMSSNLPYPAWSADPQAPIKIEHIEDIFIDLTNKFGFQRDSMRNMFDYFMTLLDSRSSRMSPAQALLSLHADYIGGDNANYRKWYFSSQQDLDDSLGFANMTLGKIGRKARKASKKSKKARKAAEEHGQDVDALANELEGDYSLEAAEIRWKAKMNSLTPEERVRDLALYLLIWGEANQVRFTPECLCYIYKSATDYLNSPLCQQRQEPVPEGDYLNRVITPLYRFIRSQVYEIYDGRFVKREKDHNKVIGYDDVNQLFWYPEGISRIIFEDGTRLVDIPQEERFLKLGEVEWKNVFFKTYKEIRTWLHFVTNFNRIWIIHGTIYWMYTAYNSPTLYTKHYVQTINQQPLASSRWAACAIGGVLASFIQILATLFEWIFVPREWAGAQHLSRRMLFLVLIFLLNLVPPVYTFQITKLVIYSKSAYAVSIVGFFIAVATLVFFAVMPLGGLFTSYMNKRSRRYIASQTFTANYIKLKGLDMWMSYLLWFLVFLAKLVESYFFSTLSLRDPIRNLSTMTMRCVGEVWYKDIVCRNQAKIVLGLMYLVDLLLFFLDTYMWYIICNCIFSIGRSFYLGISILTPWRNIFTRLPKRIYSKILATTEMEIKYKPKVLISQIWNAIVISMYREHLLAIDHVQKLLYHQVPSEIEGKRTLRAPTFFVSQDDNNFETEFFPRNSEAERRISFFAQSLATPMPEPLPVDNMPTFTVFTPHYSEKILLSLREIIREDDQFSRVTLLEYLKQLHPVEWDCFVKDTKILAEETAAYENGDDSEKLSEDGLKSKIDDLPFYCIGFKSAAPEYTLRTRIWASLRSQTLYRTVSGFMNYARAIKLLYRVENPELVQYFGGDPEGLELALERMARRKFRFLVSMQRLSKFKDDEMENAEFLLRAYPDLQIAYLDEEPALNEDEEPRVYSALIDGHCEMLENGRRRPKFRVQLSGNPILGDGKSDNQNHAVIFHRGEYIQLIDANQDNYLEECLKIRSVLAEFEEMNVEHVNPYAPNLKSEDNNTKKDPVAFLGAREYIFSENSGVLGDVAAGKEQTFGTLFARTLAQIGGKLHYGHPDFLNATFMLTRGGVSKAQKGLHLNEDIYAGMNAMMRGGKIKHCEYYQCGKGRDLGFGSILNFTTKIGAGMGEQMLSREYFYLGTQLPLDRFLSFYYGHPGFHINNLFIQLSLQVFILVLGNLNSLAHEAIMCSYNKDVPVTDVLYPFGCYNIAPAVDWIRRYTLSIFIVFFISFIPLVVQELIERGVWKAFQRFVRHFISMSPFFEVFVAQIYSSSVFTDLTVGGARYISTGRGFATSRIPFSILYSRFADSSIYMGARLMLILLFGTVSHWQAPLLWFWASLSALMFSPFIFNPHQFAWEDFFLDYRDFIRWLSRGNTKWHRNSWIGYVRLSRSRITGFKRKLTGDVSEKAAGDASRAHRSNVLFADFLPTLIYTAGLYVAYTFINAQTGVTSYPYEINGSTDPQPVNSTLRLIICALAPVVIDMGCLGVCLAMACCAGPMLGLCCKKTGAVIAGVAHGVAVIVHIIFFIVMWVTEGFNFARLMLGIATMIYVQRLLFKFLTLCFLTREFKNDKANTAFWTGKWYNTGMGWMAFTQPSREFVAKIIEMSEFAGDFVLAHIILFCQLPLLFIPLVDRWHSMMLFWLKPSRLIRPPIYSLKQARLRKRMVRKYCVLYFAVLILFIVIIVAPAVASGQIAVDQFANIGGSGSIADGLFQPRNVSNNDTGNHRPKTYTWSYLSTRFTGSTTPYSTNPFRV

Row | Structure (SMILES) | IC50 [nM]
1 | CNC(=O)c1ncnn1[C@@H]1C[C@@]23COC[C@](C)([C@@H]2CC[C@H]2C3=CC[C@@]3(C)[C@H](C(=O)O)[C@@](C)([C@H](C)C(C)C)CC[C@]23C)[C@H]1OC[C@](C)(N)C(C)(C)C [Example 89, (1S,4aR,6aS,7R,8R,10aR,10bR,12aR,14R,15R)-15-[[(2R)-2-amino-2,3,3-trimethylbutyl]oxy]-8-[(1R)-1,2-dimethylpropyl]-14-[5-[(methylamino)carbonyl]-1H-1,2,4-triazol-1-yl]-1,6,6a,7,8,9,10,10a,10b,11,12,12a-dodecahydro-1,6a,8,10a-tetramethyl-4H-1,4a-propano-2H-phenanthro[1,2-c]pyran-7-carboxylic acid] | 11.3
2 | CC(C)[C@@H](C)[C@@]1(C)CC[C@]2(C)[C@H]3CC[C@@H]4[C@@]5(COC[C@@]4(C)[C@@H](OC[C@H](N)C(C)(C)C)[C@H](n4ncnc4C(N)=O)C5)C3=CC[C@@]2(C)[C@@H]1C(=O)O [Example 97, (1S,4aR,6aS,7R,8R,10aR,10bR,12aR,14R,15R)-14-[5-(aminocarbonyl)-1H-1,2,4-triazol-1-yl]-15-[[(2R)-2-amino-3,3-dimethylbutyl]oxy]-8-[(1R)-1,2-dimethylpropyl]-1,6,6a,7,8,9,10,10a,10b,11,12,12a-dodecahydro-1,6a,8,10a-tetramethyl-4H-1,4a-propano-2H-phenanthro[1,2-c]pyran-7-carboxylic acid] | 11.7
3 | CCCNC(=O)c1ncnn1[C@@H]1C[C@@]23COC[C@](C)([C@@H]2CC[C@H]2C3=CC[C@@]3(C)[C@H](C(=O)O)[C@@](C)([C@H](C)C(C)C)CC[C@]23C)[C@H]1OC[C@@](C)(N)C(C)C [Example 105, (1S,4aR,6aS,7R,8R,10aR,10bR,12aR,14R,15R)-15-[[(2S)-2-amino-2,3-dimethylbutyl]oxy]-8-[(1R)-1,2-dimethylpropyl]-14-[5-[(propylamino)carbonyl]-1H-1,2,4-triazol-1-yl]-1,6,6a,7,8,9,10,10a,10b,11,12,12a-dodecahydro-1,6a,8,10a-tetramethyl-4H-1,4a-propano-2H-phenanthro[1,2-c]pyran-7-carboxylic acid] | 29
4 | CNC1(CO[C@H]2[C@H](n3ncnc3C(N)=O)C[C@@]34COC[C@]2(C)[C@@H]3CC[C@H]2C4=CC[C@@]3(C)[C@H](C(=O)O)[C@@](C)([C@H](C)C(C)C)CC[C@]23C)CCCCC1 [Example 107, (1S,4aR,6aS,7R,8R,10aR,10bR,12aR,14R,15R)-14-[5-(aminocarbonyl)-1H-1,2,4-triazol-1-yl]-8-[(1R)-1,2-dimethylpropyl]-15-[[1-(methylamino)cyclohexyl]methoxy]-1,6,6a,7,8,9,10,10a,10b,11,12,12a-dodecahydro-1,6a,8,10a-tetramethyl-4H-1,4a-propano-2H-phenanthro[1,2-c]pyran-7-carboxylic acid] | 19.8
5 | CNC(=O)c1ncnn1[C@@H]1C[C@@]23COC[C@](C)([C@@H]2CC[C@H]2C3=CC[C@@]3(C)[C@H](C(=O)O)[C@@](C)([C@H](C)C(C)C)CC[C@]23C)[C@H]1OCC1(N)CCOCC1 [Example 112, (1S,4aR,6aS,7R,8R,10aR,10bR,12aR,14R,15R)-15-[(4-aminotetrahydro-2H-pyran-4-yl)methoxy]-8-[(1R)-1,2-dimethylpropyl]-14-[5-[(methylamino)carbonyl]-1H-1,2,4-triazol-1-yl]-1,6,6a,7,8,9,10,10a,10b,11,12,12a-dodecahydro-1,6a,8,10a-tetramethyl-4H-1,4a-propano-2H-phenanthro[1,2-c]pyran-7-carboxylic acid] | 9.86
6 | CNC(=O)c1ncnn1[C@@H]1C[C@@]23COC[C@](C)([C@@H]2CC[C@H]2C3=CC[C@@]3(C)[C@H](C(=O)O)[C@@](C)([C@H](C)C(C)C)CC[C@]23C)[C@H]1OCC1(NC)CCSCC1 [Example 116, (1S,4aR,6aS,7R,8R,10aR,10bR,12aR,14R,15R)-8-[(1R)-1,2-dimethylpropyl]-14-[5-[(methylamino)carbonyl]-1H-1,2,4-triazol-1-yl]-15-[[tetrahydro-4-(methylamino)-2H-thiopyran-4-yl]methoxy]-1,6,6a,7,8,9,10,10a,10b,11,12,12a-dodecahydro-1,6a,8,10a-tetramethyl-4H-1,4a-propano-2H-phenanthro[1,2-c]pyran-7-carboxylic acid] | 20.3
7 | CC(C)[C@@H](C)[C@@]1(C)CC[C@]2(C)[C@H]3CC[C@@H]4[C@@]5(COC[C@@]4(C)[C@@H](OC[C@](C)(N)C(C)C)[C@H](n4nc(N)nc4C(N)=O)C5)C3=CC[C@@]2(C)[C@@H]1C(=O)O [Example 119, (1S,4aR,6aS,7R,8R,10aR,10bR,12aR,14R,15R)-14-[3-amino-5-(aminocarbonyl)-1H-1,2,4-triazol-1-yl]-15-[[(2R)-2-amino-2,3-dimethylbutyl]oxy]-8-[(1R)-1,2-dimethylpropyl]-1,6,6a,7,8,9,10,10a,10b,11,12,12a-dodecahydro-1,6a,8,10a-tetramethyl-4H-1,4a-propano-2H-phenanthro[1,2-c]pyran-7-carboxylic acid] | 12.9
8 | CC(C)[C@@H](C)[C@@]1(C)CC[C@]2(C)[C@H]3CC[C@@H]4[C@@]5(COC[C@@]4(C)[C@@H](OC[C@](C)(N)C(C)(C)C)[C@H](n4ncnc4S(N)(=O)=O)C5)C3=CC[C@@]2(C)[C@@H]1C(=O)O [Example 123C, (1S,4aR,6aS,7R,8R,10aR,10bR,12aR,14R,15R)-14-[5-(aminosulfonyl)-1H-1,2,4-triazol-1-yl]-15-[[(2R)-2-amino-2,3,3-trimethylbutyl]oxy]-8-[(1R)-1,2-dimethylpropyl]-1,6,6a,7,8,9,10,10a,10b,11,12,12a-dodecahydro-1,6a,8,10a-tetramethyl-4H-1,4a-propano-2H-phenanthro[1,2-c]pyran-7-carboxylic acid] | 5.46
9 | CCCNS(=O)(=O)c1ncnn1[C@@H]1C[C@@]23COC[C@](C)([C@@H]2CC[C@H]2C3=CC[C@@]3(C)[C@H](C(=O)O)[C@@](C)([C@H](C)C(C)C)CC[C@]23C)[C@H]1OCC(N)(CC)CC [Example 126, (1S,4aR,6aS,7R,8R,10aR,10bR,12aR,14R,15R)-15-(2-amino-2-ethylbutoxy)-8-[(1R)-1,2-dimethylpropyl]-14-[5-[(propylamino)sulfonyl]-1H-1,2,4-triazol-1-yl]-1,6,6a,7,8,9,10,10a,10b,11,12,12a-dodecahydro-1,6a,8,10a-tetramethyl-4H-1,4a-propano-2H-phenanthro[1,2-c]pyran-7-carboxylic acid] | 34.2

Results, then the compound that gave them:

Row | IC50 [nM] | Structure (SMILES)
10 | 8.49 | CC(C)[C@@H](C)[C@@]1(C)CC[C@]2(C)[C@H]3CC[C@@H]4[C@@]5(COC[C@@]4(C)[C@@H](OC[C@](C)(N)C(C)C)[C@H](n4ncnc4C4=NCCN4)C5)C3=CC[C@@]2(C)[C@@H]1C(=O)O [Example 128, (1S,4aR,6aS,7R,8R,10aR,10bR,12aR,14R,15R)-15-[[(2R)-2-amino-2,3-dimethylbutyl]oxy]-14-[5-(4,5-dihydro-1H-imidazol-2-yl)-1H-1,2,4-triazol-1-yl]-8-[(1R)-1,2-dimethylpropyl]-1,6,6a,7,8,9,10,10a,10b,11,12,12a-dodecahydro-1,6a,8,10a-tetramethyl-4H-1,4a-propano-2H-phenanthro[1,2-c]pyran-7-carboxylic acid]
11 | 12 | CN[C@@](C)(CO[C@H]1[C@H](n2ncnc2C2=NCCCN2)C[C@@]23COC[C@]1(C)[C@@H]2CC[C@H]1C3=CC[C@@]2(C)[C@H](C(=O)O)[C@@](C)([C@H](C)C(C)C)CC[C@]12C)C(C)(C)C [Example 136, (1S,4aR,6aS,7R,8R,10aR,10bR,12aR,14R,15R)-8-[(1R)-1,2-dimethylpropyl]-14-[5-(1,4,5,6-tetrahydro-2-pyrimidinyl)-1H-1,2,4-triazol-1-yl]-15-[[(2R)-2,3,3-trimethyl-2-(methylamino)butyl]oxy]-1,6,6a,7,8,9,10,10a,10b,11,12,12a-dodecahydro-1,6a,8,10a-tetramethyl-4H-1,4a-propano-2H-phenanthro[1,2-c]pyran-7-carboxylic acid]
12 | 8.5 | CC(C)[C@@H](C)[C@@]1(C)CC[C@]2(C)[C@H]3CC[C@@H]4[C@@]5(COC[C@@]4(C)[C@@H](OC[C@](C)(N)C(C)C)[C@H](n4ncnc4-n4cncn4)C5)C3=CC[C@@]2(C)[C@@H]1C(=O)O [Example 138, (1S,4aR,6aS,7R,8R,10aR,10bR,12aR,14R,15R)-15-[[(2R)-2-amino-2,3-dimethylbutyl]oxy]-14-[1,5′-bi-1H-1,2,4-triazol]-1′-yl-8-[(1R)-1,2-dimethylpropyl]-1,6,6a,7,8,9,10,10a,10b,11,12,12a-dodecahydro-1,6a,8,10a-tetramethyl-4H-1,4a-propano-2H-phenanthro[1,2-c]pyran-7-carboxylic acid]
13 | 6.84 | CCS(=O)(=O)c1ncnn1[C@@H]1C[C@@]23COC[C@](C)([C@@H]2CC[C@H]2C3=CC[C@@]3(C)[C@H](C(=O)O)[C@@](C)([C@H](C)C(C)C)CC[C@]23C)[C@H]1OC[C@](C)(N)C(C)C [Example 140, (1S,4aR,6aS,7R,8R,10aR,10bR,12aR,14R,15R)-15-[[(2R)-2-amino-2,3-dimethylbutyl]oxy]-8-[(1R)-1,2-dimethylpropyl]-14-[5-(ethylsulfonyl)-1H-1,2,4-triazol-1-yl]-1,6,6a,7,8,9,10,10a,10b,11,12,12a-dodecahydro-1,6a,8,10a-tetramethyl-4H-1,4a-propano-2H-phenanthro[1,2-c]pyran-7-carboxylic acid]
14 | 8.51 | CC(C)[C@@H](C)[C@@]1(C)CC[C@]2(C)[C@H]3CC[C@@H]4[C@@]5(COC[C@@]4(C)[C@@H](OC[C@](C)(N)C(C)C)[C@H](n4ncnc4-c4ccoc4)C5)C3=CC[C@@]2(C)[C@@H]1C(=O)O [Example 144, (1S,4aR,6aS,7R,8R,10aR,10bR,12aR,14R,15R)-15-[[(2R)-2-amino-2,3-dimethylbutyl]oxy]-8-[(1R)-1,2-dimethylpropyl]-14-[5-(3-furanyl)-1H-1,2,4-triazol-1-yl]-1,6,6a,7,8,9,10,10a,10b,11,12,12a-dodecahydro-1,6a,8,10a-tetramethyl-4H-1,4a-propano-2H-phenanthro[1,2-c]pyran-7-carboxylic acid]
